Values after ≈ are worked out from the molar mass of the structure shown.

Target in the first assay: not listed separately
Nature of the assay: Inhibition of soybean arachidonate 15-lipoxygenase by oxygen electrode method. The arrangement: species or system Glycine max.
Consider `COc1cc2c(cc1O)C=CC(C)(CCC=C(C)C)O2` (stereo not drawn), for which the IC50 – broadly, the concentration that inhibits the measured activity by half – was 0.5 µg/mL (≈ 1.82 µM).

For `CC(C)=CCC/C(C)=C/Cc1cc(O)ccc1O` [GEROQUINOL], the IC50 came to 0.2 µg/mL (≈ 0.812 µM).

The compound `CC(C)=CCCC1(C)C=Cc2cc(O)ccc2O1` (stereo not drawn) [CORDIACHROMENE A] gave an IC50 of 0.2 µg/mL (≈ 0.819 µM).

Take `CC(C)=CCCC(C)(O)CCc1cc(O)ccc1O` (stereo not drawn): the IC50 was found to be 3 µg/mL (≈ 11.3 µM).

Compound `Cc1cc(C(C)(C)C)c(O)c(C(C)(C)C)c1` [BUTYLATED HYDROXYTOLUENE] displayed an IC50 of over 10 µg/mL.

`CC(=O)Oc1c(C)c(C)c2c(c1C)CCC(C)(CCC[C@H](C)CCC[C@H](C)CCCC(C)C)O2` (stereo partly drawn) [TOCOPHEROL ACETATE]: the IC50 was over 10 µg/mL.

Another assay has as its system Liver microsomes. Briefly: Antioxidant activity in rat liver microsomes assessed as inhibition of lipid peroxide formation after 30 mins. The assay is classed as functional, Microsome.
In the case of `CC(C)=CCCC(C)(O)/C=C/c1cc(O)ccc1O` (stereo not drawn), the IC50 came to 0.3 µg/mL (≈ 1.14 µM).

Consider `COc1cc2c(cc1O)C=CC(C)(CCC=C(C)C)O2` (stereo not drawn), for which the IC50 turned out to be 0.1 µg/mL (≈ 0.364 µM).

In the case of `CC(C)=CCC/C(C)=C/Cc1cc(O)ccc1O` [GEROQUINOL], the IC50 was found to be 0.1 µg/mL (≈ 0.406 µM).

`CC(C)=CCCC1(C)C=Cc2cc(O)ccc2O1` (stereo not drawn) [CORDIACHROMENE A]: the IC50 turned out to be 0.3 µg/mL (≈ 1.23 µM).

In the case of `CC(C)=CCCC(C)(O)CCc1cc(O)ccc1O` (stereo not drawn), the half-maximal inhibitory concentration (IC50) turned out to be 0.3 µg/mL (≈ 1.13 µM).

With `Cc1cc(C(C)(C)C)c(O)c(C(C)(C)C)c1` [BUTYLATED HYDROXYTOLUENE], the IC50 stood at 0.3 µg/mL (≈ 1.36 µM).

For `CC(=O)Oc1c(C)c(C)c2c(c1C)CCC(C)(CCC[C@H](C)CCC[C@H](C)CCCC(C)C)O2` (stereo partly drawn) [TOCOPHEROL ACETATE], the IC50 is over 10 µg/mL.
